The source made the active and inactive calls.
How the values were obtained:
[1] = biological target: T1, Tyrosine-protein phosphatase non-receptor type 7 (Homo sapiens, UniProt P35236); assay: inhibitors of human HePTP phosphatase, […], biochemical, absorbance, leukemia target (AID 521); assay type: functional
T1 sequence (P35236 whole entry): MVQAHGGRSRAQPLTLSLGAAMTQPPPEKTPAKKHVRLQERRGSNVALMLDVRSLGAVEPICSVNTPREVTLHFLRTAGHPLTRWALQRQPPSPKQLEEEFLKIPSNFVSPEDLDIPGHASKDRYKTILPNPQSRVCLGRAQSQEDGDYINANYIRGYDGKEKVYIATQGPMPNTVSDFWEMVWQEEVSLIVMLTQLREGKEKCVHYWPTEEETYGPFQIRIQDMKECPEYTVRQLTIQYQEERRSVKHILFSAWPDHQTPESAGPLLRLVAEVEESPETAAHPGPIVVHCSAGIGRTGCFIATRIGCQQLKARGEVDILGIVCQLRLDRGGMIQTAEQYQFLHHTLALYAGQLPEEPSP

[2] = growth suppression of PTEN-null colon cells, dose response, cell-based, HCT116 PTEN knockout (AID 1047); assay type: functional;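 also: HCT116 colon tumor cells with PTEN knocked out; cells exposed to compound for 60 hours before readout; potency for loss of cell viability measured by luminescence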
[3] = growth suppression of beta-catenin-knockout colon cells, dose response, cell-based, HCT116, human colon tumor (AID 1045); assay type: functional;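 also: HCT116 colon tumor cells with beta catenin knocked out; cells exposed to compound for 60 hours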
Protein skinhead-1 = biological target: T2, Protein skinhead-1 (Caenorhabditis elegans, UniProt P34707); assay type: functional
T2 sequence (P34707 whole entry): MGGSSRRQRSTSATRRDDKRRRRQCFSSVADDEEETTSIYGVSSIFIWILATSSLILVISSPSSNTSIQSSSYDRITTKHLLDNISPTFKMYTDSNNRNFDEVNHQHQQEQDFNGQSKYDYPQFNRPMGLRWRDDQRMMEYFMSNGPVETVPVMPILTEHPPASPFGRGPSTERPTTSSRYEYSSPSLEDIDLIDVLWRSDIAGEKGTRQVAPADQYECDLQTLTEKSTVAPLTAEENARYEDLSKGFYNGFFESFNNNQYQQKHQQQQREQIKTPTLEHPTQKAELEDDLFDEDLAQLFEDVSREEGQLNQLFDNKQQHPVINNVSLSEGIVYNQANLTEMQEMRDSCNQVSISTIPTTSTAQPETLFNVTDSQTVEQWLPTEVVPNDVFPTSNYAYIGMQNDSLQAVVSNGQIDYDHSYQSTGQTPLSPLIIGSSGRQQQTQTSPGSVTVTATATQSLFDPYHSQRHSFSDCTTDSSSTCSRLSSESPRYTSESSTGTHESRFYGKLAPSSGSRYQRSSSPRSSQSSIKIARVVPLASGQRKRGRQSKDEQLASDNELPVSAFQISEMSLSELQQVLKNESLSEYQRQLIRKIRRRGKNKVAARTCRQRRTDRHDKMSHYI

[4] = inhibitors of PGC1a acetylation in cells, dose response, cell-based, cherry-picked samples (AID 720514); assay type: functional;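 also: potency may reflect raised or lowered acetylation signal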
HEK293 [5] = assay: NOD1 signaling inhibitors, primary screen, cell-based, luminescence, uHTS (AID 1578); assay type: functional; settings: Homo sapiens
HEK293 [6] = assay: cells; assay type: functional, cell-based; settings: Homo sapiens
Galanin receptor type 2 = Galanin receptor type 2 (Homo sapiens, UniProt O43603); assay: Dose Response cell-based high-throughput screening assay to identify antagonists of galanin receptor 2 (GALR2). [Related pubchem assays: 828, 866 ]; assay type: functional
HEK293 [7] = assay: cells; assay type: functional, cell-based; settings: Homo sapiens; remark: listed apart in the source
[8] = biological target: Nucleotide-binding oligomerization domain-containing protein 2 (Homo sapiens, UniProt Q9HC29); assay: NOD2 signaling inhibitors, cell-based, luminescence, uHTS, HEK293 (AID 1566); assay type: functional
HEK293 [9] = assay: NOD2 signaling inhibitors in MDP-stimulated cells, cell-based, uHTS, luminescence (AID 2001); assay type: functional; settings: Homo sapiens
HEK293 [10] = assay: cells; assay type: functional, cell-based; settings: Homo sapiens; remark: listed apart in the source
[11] = biological target: Heat shock protein HSP 90-alpha (Homo sapiens, UniProt P07900); assay: Luminescence-based dose response biochemical high throughput screening assay for inhibitors of the Heat Shock Protein 90 (HSP90). [Related pubchem assays: 1831 (Summary AID.), 1846 (Confirmation screen.), 1789 (Primary screen.)]
INS1 = assay: beta cell apoptosis inhibitors, cytokine rescue, dose response, luminescence, retest (AID 449756); assay type: functional, cell-based; settings: Rattus norvegicus;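 also: cell death triggered by IL-1 beta plus TNF-alpha plus IFN-gamma mixture; protective hits raise ATP signal compared with cytokine alone wells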
[12] = biological target: COUP transcription factor 2 (Homo sapiens, UniProt P24468); assay: Luminescence-based cell-based high throughput dose response assay to identify inhibitors of COUP-TFII (NR2F2).; assay type: functional;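 also: HEK293 cells transiently cotransfected with COUP-TFII expression vector and reporter; luciferase reporter luminescence driven by COUP-TFII from the pX2-168 reporter plasmid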
Paired box protein Pax-8 = Paired box protein Pax-8 (Homo sapiens, UniProt Q06710); assay: inhibitors of PAX8-driven TPO luciferase reporter, dose response, RMG-I cells, cherry-pick (AID 687027); assay type: functional, cell-based;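 also: luciferase reporter driven by Pax8 target thyroperoxidase promoter measured by SteadyGlo luminescence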
[13] = PAX2 cell-based inhibition, dose response, selectivity assay for PAX8 inhibitor project, plate reader, dry powder samples (AID 743048); assay type: functional;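 also: HEK293 cells carrying a WT1 promoter luciferase reporter driven by expressed Pax2; potency is for inhibition of Pax2 driven reporter signal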
[14] = cytotoxicity in COV362 ovarian cancer cells, dose response, cytotoxicity control for PAX8 inhibitor project, cell-based, plate reader, dry powder, SA12 (AID 743144); assay type: functional
[15] = IOSE-T80 ovarian epithelial cell cytotoxicity, dose response, cytotoxicity control for PAX8 inhibitor project, plate reader, dry powder samples (AID 743045); assay type: functional, cell-based
[16] = PAX5 activity inhibitors, dose response, selectivity assay for PAX8 inhibitor project, cell-based, plate reader, dry powder samples (AID 743047); assay type: functional;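 also: HEK293 cells carrying a Pax5 driven CD19 promoter luciferase reporter; potency of inhibitors that lower reporter luminescence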
[17] = cytotoxicity in OVCAR4 cells, dose response, cytotoxicity control for PAX8 inhibitor project, cell-based, plate reader, dry powder, SA11 (AID 743150); assay type: functional; settings: OVCAR-4
[18] = cytotoxicity in COV434 cells, dose response, cytotoxicity control for PAX8 inhibitor project, cell-based, plate reader, dry powder, SA7 (AID 743145); assay type: functional
[19] = cytotoxicity in OV-90 ovarian cancer cells, dose response, PAX8 inhibitor project, cell-based, plate reader, dry powder, SA8 (AID 743149); assay type: functional
[20] = cytotoxicity dependent on PAX8, dose response, cell-based, plate reader, dry powder (AID 743049); assay type: functional
[21] = biological target: T3, Methionyl-tRNA synthetase, putative (Trypanosoma brucei brucei, UniProt Q38C91); assay type: functional, Trypanosoma brucei brucei strain 927/4 GUTat10.1
T3 sequence (Q38C91 whole entry): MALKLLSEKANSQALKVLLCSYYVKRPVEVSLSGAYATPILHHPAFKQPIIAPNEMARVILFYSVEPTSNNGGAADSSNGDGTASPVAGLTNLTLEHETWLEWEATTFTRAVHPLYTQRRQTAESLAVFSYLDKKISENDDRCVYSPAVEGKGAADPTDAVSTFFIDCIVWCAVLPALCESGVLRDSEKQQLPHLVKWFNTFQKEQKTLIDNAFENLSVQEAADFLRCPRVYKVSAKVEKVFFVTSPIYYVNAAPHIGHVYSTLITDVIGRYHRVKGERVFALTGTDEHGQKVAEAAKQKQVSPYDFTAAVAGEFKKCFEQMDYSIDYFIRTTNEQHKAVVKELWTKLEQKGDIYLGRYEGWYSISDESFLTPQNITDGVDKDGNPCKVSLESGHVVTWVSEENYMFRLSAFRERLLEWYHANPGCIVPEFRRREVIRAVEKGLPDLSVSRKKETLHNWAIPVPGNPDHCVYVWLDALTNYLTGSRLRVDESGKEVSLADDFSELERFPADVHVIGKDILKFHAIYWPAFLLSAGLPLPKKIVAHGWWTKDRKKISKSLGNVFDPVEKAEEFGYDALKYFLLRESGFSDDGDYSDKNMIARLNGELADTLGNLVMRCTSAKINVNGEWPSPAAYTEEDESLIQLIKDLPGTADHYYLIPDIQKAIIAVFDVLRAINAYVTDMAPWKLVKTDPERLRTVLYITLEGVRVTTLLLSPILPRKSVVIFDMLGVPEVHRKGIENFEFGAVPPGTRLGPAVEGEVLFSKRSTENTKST

[22] = Counterscreen for inhibitors of Trypanosoma brucei methionyl tRNA synthetase (MetRS): Luminescence-based cell-based high throughput dose response assay to identify compounds that are cytotoxic to Jurkat human T lymphocyte cells.; assay type: functional
[23] = biological target: T3, Methionyl-tRNA synthetase, putative; assay type: functional, Trypanosoma brucei brucei strain 927/4 GUTat10.1; remark: listed apart in the source
[24] = Late stage counterscreen for inhibitors of Trypanosoma brucei methionyl tRNA synthetase (MetRS): Luminescence-based cell-based high throughput dose response assay to identify compounds that are cytotoxic to Jurkat human T lymphocyte cells.; assay type: functional
[25] = biological target: Diphosphomevalonate decarboxylase (Streptococcus pneumoniae serotype 2 (strain D39 / NCTC 7466), UniProt Q9FD53); assay: S. pneumoniae DPM-DC inhibition retest, confirmation, biochemical, cuvette format, coupled NADH fluorescence (AID 1028); assay type: functional
[26] = biological target: NAD-dependent protein deacylase sirtuin-5, mitochondrial (Homo sapiens, UniProt Q9NXA8); assay: SIRT5 desuccinylase inhibitors, dose response, biochemical, fluorescence imaging, cherry-pick, set 5 (AID 720591);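 also: desuccinylation of succinyl peptide AMC substrate read as fluorescence after trypsin release; potency of inhibitors that lower fluorescence and may act on trypsin instead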
[27] = biological target: T4, Endoribonuclease toxin MazF (Escherichia coli K-12, UniProt P0AE70); assay: MazF toxin RNase activators, dose response, biochemical, fluorescence, single-stranded RNA substrate, uHTS hits (AID 588481); assay type: functional
T4 sequence (P0AE70 whole entry): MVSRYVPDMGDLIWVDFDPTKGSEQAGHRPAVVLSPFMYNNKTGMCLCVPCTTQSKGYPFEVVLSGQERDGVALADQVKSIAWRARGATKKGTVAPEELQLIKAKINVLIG

[28] = biological target: T4, Endoribonuclease toxin MazF; assay: fluorescent RNA oligo signal without MazF, dose response, counter-screen for MazEF activator project, biochemical, fluorescence, single-stranded RNase substrate (AID 588502); assay type: functional
Protein Tat = Protein Tat (Human immunodeficiency virus type 1 group M subtype B (isolate HXB2)(HIV-1), UniProt P04608); assay type: functional;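 also: tat binding to TAR RNA read out by fluorescence polarization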
Protein Tat, sequence (P04608 whole entry): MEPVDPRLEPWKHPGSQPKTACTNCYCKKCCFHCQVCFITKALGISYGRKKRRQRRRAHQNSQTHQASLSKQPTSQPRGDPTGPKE

Diphosphomevalonate decarboxylase, sequence (Q9FD53 whole entry): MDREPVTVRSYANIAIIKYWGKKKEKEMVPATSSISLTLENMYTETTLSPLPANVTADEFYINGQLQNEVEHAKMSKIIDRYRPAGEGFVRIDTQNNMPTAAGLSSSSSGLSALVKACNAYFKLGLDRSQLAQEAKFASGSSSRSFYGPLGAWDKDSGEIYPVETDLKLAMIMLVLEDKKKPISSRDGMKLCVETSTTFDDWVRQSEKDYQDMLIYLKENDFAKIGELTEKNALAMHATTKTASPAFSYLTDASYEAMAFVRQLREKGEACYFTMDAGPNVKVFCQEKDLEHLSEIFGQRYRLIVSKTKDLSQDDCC
Galanin receptor type 2, sequence (O43603 whole entry): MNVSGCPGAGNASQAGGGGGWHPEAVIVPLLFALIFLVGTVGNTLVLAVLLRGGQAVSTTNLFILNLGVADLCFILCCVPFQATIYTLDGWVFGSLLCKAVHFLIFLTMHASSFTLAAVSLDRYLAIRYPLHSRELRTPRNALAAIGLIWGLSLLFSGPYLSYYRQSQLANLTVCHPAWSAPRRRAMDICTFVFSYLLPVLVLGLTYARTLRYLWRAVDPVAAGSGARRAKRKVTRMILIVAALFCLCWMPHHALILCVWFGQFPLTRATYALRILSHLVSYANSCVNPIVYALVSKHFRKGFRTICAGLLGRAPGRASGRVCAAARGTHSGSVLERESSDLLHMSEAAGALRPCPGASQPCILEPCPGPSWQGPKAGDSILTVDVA
COUP transcription factor 2, sequence (P24468 whole entry): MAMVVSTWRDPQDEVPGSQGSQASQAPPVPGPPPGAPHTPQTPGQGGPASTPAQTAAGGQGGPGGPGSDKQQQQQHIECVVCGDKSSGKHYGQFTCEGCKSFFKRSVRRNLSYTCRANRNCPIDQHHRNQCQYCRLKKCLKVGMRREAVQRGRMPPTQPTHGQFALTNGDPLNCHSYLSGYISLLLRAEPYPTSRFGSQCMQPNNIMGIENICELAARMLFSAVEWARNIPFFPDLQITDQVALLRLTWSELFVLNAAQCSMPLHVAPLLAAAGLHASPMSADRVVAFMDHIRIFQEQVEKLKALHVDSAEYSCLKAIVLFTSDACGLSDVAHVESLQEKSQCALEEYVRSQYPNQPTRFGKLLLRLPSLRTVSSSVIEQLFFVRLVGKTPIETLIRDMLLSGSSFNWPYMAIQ
Paired box protein Pax-8, sequence (Q06710 whole entry): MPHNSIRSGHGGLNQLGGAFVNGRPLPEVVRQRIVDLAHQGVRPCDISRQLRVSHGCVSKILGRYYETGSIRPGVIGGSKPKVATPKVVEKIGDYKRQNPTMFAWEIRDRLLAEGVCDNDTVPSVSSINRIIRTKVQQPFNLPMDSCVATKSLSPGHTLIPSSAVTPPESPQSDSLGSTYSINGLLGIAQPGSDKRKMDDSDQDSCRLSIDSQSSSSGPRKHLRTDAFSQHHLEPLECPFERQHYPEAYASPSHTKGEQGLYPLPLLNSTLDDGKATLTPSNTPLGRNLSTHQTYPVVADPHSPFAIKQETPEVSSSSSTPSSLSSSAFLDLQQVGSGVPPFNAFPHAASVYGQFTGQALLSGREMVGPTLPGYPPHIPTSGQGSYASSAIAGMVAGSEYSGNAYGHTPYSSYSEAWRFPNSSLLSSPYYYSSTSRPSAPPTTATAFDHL
Nucleotide-binding oligomerization domain-containing protein 2, sequence (Q9HC29 whole entry, the tested form may be a part): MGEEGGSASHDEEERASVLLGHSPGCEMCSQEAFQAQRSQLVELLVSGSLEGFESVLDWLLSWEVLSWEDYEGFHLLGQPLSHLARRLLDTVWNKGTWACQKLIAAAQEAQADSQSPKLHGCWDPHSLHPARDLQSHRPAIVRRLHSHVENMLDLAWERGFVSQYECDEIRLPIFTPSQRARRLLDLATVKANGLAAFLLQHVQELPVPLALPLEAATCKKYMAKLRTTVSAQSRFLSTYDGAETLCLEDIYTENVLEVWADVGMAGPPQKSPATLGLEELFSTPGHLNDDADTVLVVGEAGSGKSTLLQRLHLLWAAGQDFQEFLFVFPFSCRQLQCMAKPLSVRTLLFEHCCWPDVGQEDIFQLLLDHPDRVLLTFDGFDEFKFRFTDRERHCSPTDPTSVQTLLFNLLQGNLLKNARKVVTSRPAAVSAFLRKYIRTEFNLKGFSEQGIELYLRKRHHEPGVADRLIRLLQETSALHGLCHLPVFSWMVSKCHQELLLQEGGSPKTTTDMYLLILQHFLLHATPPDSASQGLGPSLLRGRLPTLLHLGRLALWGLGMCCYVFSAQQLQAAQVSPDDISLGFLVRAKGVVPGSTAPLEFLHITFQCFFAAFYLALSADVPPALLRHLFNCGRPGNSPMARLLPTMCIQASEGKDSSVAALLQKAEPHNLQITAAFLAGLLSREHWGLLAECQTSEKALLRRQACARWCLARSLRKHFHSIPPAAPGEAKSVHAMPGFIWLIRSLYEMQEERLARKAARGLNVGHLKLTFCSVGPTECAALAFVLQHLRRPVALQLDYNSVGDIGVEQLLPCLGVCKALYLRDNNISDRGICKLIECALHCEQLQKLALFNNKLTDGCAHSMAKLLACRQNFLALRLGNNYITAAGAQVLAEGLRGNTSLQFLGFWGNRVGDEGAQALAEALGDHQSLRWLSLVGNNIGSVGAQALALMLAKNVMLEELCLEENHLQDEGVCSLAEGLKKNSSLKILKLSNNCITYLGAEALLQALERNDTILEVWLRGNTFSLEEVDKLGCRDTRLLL
NAD-dependent protein deacylase sirtuin-5, mitochondrial, sequence (Q9NXA8 whole entry): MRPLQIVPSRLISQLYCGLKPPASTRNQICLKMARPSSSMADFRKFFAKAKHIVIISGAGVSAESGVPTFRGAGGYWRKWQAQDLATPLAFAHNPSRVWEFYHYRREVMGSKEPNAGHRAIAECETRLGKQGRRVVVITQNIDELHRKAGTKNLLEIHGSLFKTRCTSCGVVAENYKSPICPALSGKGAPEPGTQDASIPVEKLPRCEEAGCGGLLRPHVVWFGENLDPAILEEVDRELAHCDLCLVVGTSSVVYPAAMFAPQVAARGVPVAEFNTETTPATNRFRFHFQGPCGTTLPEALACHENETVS

**Q.** For CN(Cc1ccccc1)c1nc2c(c(=O)[nH]c(=O)n2C)n1Cc1ccccc1, which IC50 [1] is on record?
**A.** > 100 µM (not active)

**Q.** Which results are given for CCOc1cc(CNC2CCCC2)cc(Cl)c1OCc1ccc(F)cc1?
**A.** EC50 [2]: 16.1 µM (active); EC50 [3]: 12.5 µM (active); IC50 (Protein skinhead-1): < 3.13 µM (active); AC50 [4]: 9.73 µM (active)

**Q.** For CC(=O)Nc1ccccc1OCC(=O)c1cc(C)n(Cc2cccs2)c1C, which EC50 (HEK293 [5]) is on record?
**A.** 0.566 µM (active)

**Q.** What about the IC50 (HEK293 [6]) of the same compound?
**A.** < 0.312 µM (active)

**Q.** What about the IC50 (Galanin receptor type 2) of the same compound?
**A.** > 42 µM (not active)

**Q.** And the IC50 (HEK293 [7])?
**A.** 13.4 µM (active)

**Q.** What about the EC50 [8] of the same compound?
**A.** < 0.31 µM (inactive)

**Q.** And the IC50 (HEK293 [9])?
**A.** 2.05 µM (inactive)

**Q.** And the IC50 (HEK293 [10])?
**A.** > 20 µM (inactive)

**Q.** What about the IC50 [11] of the same compound?
**A.** 0.106 µM (active)

**Q.** What about the AC50 (INS1) of the same compound?
**A.** 0.775 µM (active)

**Q.** What about the IC50 [12] of the same compound?
**A.** 0.807 µM (active)

**Q.** For COc1ccc(CCN2C(=O)CSC2=S)cc1OC, which AC50 (Paired box protein Pax-8) is on record?
**A.** 7.01 µM (active)

**Q.** And the AC50 [13]?
**A.** 68.3 µM (active)

**Q.** And the AC50 [14]?
**A.** 16.6 µM (active)

**Q.** And the AC50 [15]?
**A.** 16.8 µM (active)

**Q.** What about the AC50 [16] of the same compound?
**A.** > 100 µM (inactive)

**Q.** And the AC50 [17]?
**A.** 51.2 µM (active)

**Q.** And the AC50 [18]?
**A.** 6.49 µM (active)

**Q.** And the AC50 [19]?
**A.** 8.61 µM (active)

**Q.** And the AC50 [20]?
**A.** 16 µM (active)

**Q.** For Clc1ccc(OCCSCc2nc3ccccc3[nH]2)cc1, which IC50 [21] is on record?
**A.** 8.17 µM (active)

**Q.** What about the IC50 [22] of the same compound?
**A.** 83.3 µM (inactive)

**Q.** And the IC50 [23]?
**A.** 5.85 µM (active)

**Q.** What about the IC50 [24] of the same compound?
**A.** > 83.3 µM (inactive)

**Q.** For CN(C)C(=O)c1ccc(-n2sc3ccccc3c2=O)cc1, which IC50 [25] is on record?
**A.** 21.9 µM (active)

**Q.** Which AC50 [26] does the source give for O=C(O)CCNC(=O)c1ccc(NC(=O)C(c2ccccc2)c2ccccc2)cc1 here?
**A.** 10.6 µM (active)

**Q.** With CCN(CC)c1ccc(/C=N/c2ccc(N(C)C)cc2)c(O)c1 as the compound, how does the EC50 [27] read?
**A.** > 99 µM (inactive)

**Q.** And the EC50 [28]?
**A.** > 99 µM (inactive)

**Q.** What about the IC50 (Protein Tat) of the same compound?
**A.** > 100 µM (inconclusive)

From ChEMBL document CHEMBL1201862, “PubChem BioAssay data set” (2004)
